Patent publication US9580398B2, “Compounds, compositions, and methods for modulating ferroptosis and treating excitotoxic disorders” (The Trustees of Columbia University in the City of New York, priority 2012, dated 2017)

Assays:
[1] = test system: ERK phosphorylation in HT-1080 cells; experiment: Western blotting of ERK phosphorylation; format: cell-based, human
Description: Cells were trypsinized, pelleted, and washed once in PBS. Cells were lysed for 20 minutes in buffer containing: 50 mM HEPES pH 7.4, 40 mM NaCl, 2 mM EDTA, 0.5% Triton X-100, 1.5 mM sodium orthovanadate, 50 mM NaF, 10 mM sodium pyrophosphate, 10 mM sodium β-glycerophosphate, and protease inhibitor tablet (Roche, Nutley, N.J.). Unlysed cells and debris were pelleted for 10 minutes at 10,000 rpm in a benchtop microcentrifuge at 4° C., and the supernatant was removed and mixed with 5×SDS loading buffer. Samples were separated by SDS-polyacrylamide gel electrophoresis. Western transfer was performed using the iBlot system (Invitrogen). Membrane was blocked for 1 hour in Licor Odyssey Blocking Buffer (LI-COR) and incubated in primary antibody overnight at 4° C. Following three 5-minute washes in Tris-buffered saline (pH 7.4) with 1% Tween-20 (TBS-T), membrane was incubated with secondary antibodies for 45 minutes in the dark. The membrane was washed again in TBST for three 5-minute washes with protection from light and scanned using the Odyssey Imaging System (LI-COR). Antibodies used were as follows: rabbit anti-phospho p42/44 MAPK (Cell Signaling Technology, #9101) and rabbit anti-p42/44 MAPK (Cell Signaling Technology, #9102). The secondary antibody was IR dye 800CW goat anti-rabbit IgG (LI-COR).

HT-1080 cells = experiment: Modulatory profile of lethal small molecules (effect of Fer-1 on lethality of various compounds); format: cell-based, human; conditions: resynthesized Fer-1 0.5 μM
Description: The modulatory effect (Me) for drug-drug interactions was computed as follows. First, plate-based background correction was performed using Alamar Blue values from empty (cell-free) wells included on each plate. Next, within each experiment, 100% viability is determined as the average Alamar Blue score for cells treated with modulator=DMSO and lethal=DMSO, and all Alamar Blue values were scaled from 0 to 1 with the DMSO×DMSO condition=1. The individual effects of each modulator and lethal (e.g. in the presence of DMSO) at all tested doses were then ascertained. […] Next, BExp was compared to the actual observed viability. For each informative drug-drug interaction (i.e. modulator=“DFO”, modulator concentration=100 μM, lethal=Erastin) the modulatory effect (Me) was equivalent to the maximum observed deviation, positive or negative, from BExp. By default, Me in DMSO-treated cells is equal to 0. This formula was empirically determined to provide a useful measure of modulation that is robust to differences in the shapes of individual dose-response curves for different inhibitors and lethal molecules. Me values for each inhibitor-lethal drug combination were hierarchically clustered and plotted as a heatmap using the heatmaps.2 function of the gplots library in R. […]

[2] = test system: ROS production in HT-1080 cells; experiment: Analysis of reactive oxygen species production by flow cytometry (H2DCFDA, C11-BODIPY, MitoSOX); format: cell-based, human; conditions: erastin 10 μM; HT-1080 cells; H2DCFDA, C11-BODIPY
Description: The day before the experiment, 200,000 cells/well were seeded in 6-well dishes (Corning Inc., Corning, N.Y.). […] Data was collected from the FL1 (H2DCFDA, C11-BODIPY) or FL2 channel (MitoSOX). A minimum of 10,000 cells were analyzed per condition.

[3] = test system: rat organotypic hippocampal slice culture (OHSC); experiment: Glutamate-induced excitotoxic cell death in organotypic hippocampal slice cultures (PI uptake); format: cell-based; conditions: 5 mM L-glutamate 3 hours; 24 hours after; DG, CA1, CA3; Fer-1 2 μM, CPX 5 μM, MK-801 10 μM
Description: OHSCs were cultured as previously described (Morrison et al., 2002) with approval from Columbia University's Institutional Animal Care and Use Committee (IACUC). Briefly, Sprague Dawley rat pups (P8-P10) were rapidly decapitated, and the hippocampus placed in ice-cold Gey's balanced salt solution (Sigma). 400 μm thick sections were cut using a Mcllwain tissue chopper and immediately plated on Millicell cell culture inserts (Millipore, Billerica, Mass.) in Neurobasal (Invitrogen) media supplemented with B27 (1×, Invitrogen), GlutaMAX (1 mM, Invitrogen), and D-glucose (4.5 mg/mL, Sigma) at 37° C. and 5% CO2. After 2 days in vitro (DIV), the media was changed to medium containing serum comprised of 50% DMEM (Sigma), 25% heat-inactivated horse serum (Sigma), 25% Hank's balanced salt solution (Sigma), GlutaMAX (1 mM, Invitrogen), and D-glucose (4.5 mg/mL, Sigma). Medium was changed every 2-3 days.
After 10-14 DIV, OBSCs were exposed to an excitotoxic injury consisting of a 3 hour exposure to 5 mM L-glutamate in SFM (Morrison et al., 2002). Only healthy OHSCs defined as those with less than 5% cell death in all regions of the hippocampus (DG, CA3, CA1) pre-injury were used for experiments. After the 3 hour exposure, the cultures were placed in fresh serum free media (SFM) containing 75% DMEM, 25% Hank's balanced salt solution, GlutaMAX (1 mM), D-glucose (4.5 mg/mL) until cell death was quantified at 24 hours. If drugs were added, they were added at the same time as glutamate.
Quantification of cell death has been described previously (Cater et al., 2007; Morrison et al., 2002). Brightfield images of the hippocampal cultures were taken before injury for identification of regions of interest (ROI) including the dentate gyrus (DG), CA3 and CA1. Propidium iodide (PI, Invitrogen) was used as a fluorescent signal for cell death, and images were taken before the induction of injury and 24 hours following injury. […] Percentage cell death was expressed as the number of pixels in the ROI above a threshold in the PI fluorescent image divided by the total number of pixels in the ROI.

[4] = 2,2-diphenyl-1-picrylhydrazyl (DPPH) assay, cell-free antioxidant potential; conditions: test compound 0.05 mM, absorbance at 517 nm
Description: The stable radical DPPH (Blois, 1958) was dissolved in methanol to a final concentration of 0.05 mM. 1 mL of DPPH solution was added to 2 μL of each test compound dissolved in DMSO. The final concentration of each test compound was 0.05 mM. Samples were inverted several times and allowed to incubate at room temperature for 10 minutes. Samples were then aliquoted to white 96-well solid-bottom dishes (Corning) and absorbance at 517 nm was recorded using a TECAN M200 plate reader. All values were normalized to background (methanol only). The experiment was repeated twice. Results within each trial normalized to DMSO (=1.0), then averaged across trials.

## CCOC(=O)c1ccc(NC2CCCCC2)c(N)c1 [Fer-1, ferrostatin-1]
[1]
  ERK phosphorylation: did not inhibit ERK phosphorylation
HT-1080 cells
  specificity of death inhibition against various lethal compounds: specifically inhibited RSL-induced death, but not cell death induced by other oxidative lethal compounds and apoptosis-inducing agents
[2]
  effect on erastin-induced ROS accumulation: prevent erastin-induced accumulation of cytosolic and lipid ROS
[3]
  glutamate-induced cell death (PI uptake): attenuated significantly and to an almost identical extent
[4]
  intrinsic antioxidant capability (DPPH): readily oxidized the stable radical 2,2-diphenyl-1-picrylhydrazyl (DPPH)
